The species entered for one test is Homo sapiens. Put plainly: Selectivity index, ratio of Ki for human recombinant MAOA to Ki for human recombinant MAOB.
For test [1], the target named is T1, Amine oxidase [flavin-containing] B (Homo sapiens, UniProt P27338).
T1 sequence (P27338 whole entry): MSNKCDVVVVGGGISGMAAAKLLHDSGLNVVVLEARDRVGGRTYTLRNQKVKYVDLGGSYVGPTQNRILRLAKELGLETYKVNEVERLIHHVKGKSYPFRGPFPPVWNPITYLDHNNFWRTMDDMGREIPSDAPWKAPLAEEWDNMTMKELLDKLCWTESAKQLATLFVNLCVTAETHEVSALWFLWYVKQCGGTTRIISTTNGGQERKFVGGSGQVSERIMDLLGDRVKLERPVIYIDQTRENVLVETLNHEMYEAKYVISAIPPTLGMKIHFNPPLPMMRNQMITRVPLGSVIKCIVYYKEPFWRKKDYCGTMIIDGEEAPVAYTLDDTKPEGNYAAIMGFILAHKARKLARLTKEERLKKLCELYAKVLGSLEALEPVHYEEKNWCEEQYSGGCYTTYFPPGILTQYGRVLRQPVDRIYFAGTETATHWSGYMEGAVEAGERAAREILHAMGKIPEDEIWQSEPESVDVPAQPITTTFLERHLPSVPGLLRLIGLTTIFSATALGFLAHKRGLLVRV
Description: Binding affinity to human recombinant MAOB.

Test [2] deals with T2, Amine oxidase [flavin-containing] A (Homo sapiens, UniProt P21397).
T2 sequence (P21397 whole entry): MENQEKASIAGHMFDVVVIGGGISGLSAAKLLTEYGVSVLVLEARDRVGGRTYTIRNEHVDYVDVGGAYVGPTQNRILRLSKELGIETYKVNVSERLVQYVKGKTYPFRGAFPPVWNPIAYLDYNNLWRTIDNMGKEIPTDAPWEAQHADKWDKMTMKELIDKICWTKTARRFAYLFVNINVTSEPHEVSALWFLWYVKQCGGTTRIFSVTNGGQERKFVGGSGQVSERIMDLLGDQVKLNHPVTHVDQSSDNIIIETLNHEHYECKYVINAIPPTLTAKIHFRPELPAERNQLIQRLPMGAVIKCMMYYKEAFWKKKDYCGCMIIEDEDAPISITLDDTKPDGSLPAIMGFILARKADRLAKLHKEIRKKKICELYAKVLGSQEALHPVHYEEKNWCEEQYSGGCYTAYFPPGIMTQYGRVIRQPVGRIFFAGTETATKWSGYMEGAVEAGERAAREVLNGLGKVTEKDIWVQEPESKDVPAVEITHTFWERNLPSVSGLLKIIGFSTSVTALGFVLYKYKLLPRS
Put plainly: Inhibition of human recombinant MAOA assessed as kynuramine conversion to 4-hydroxyquinoline after 20 mins by fluorescence assay.

Test [3] addresses T2, Amine oxidase [flavin-containing] A. Put plainly: Binding affinity to human recombinant MAOA.
For test [4], the target named is T1, Amine oxidase [flavin-containing] B. Put plainly: Inhibition of human recombinant MAOB assessed as kynuramine conversion to 4-hydroxyquinoline after 20 mins by fluorescence assay.

Consider two compounds from ChEMBL document CHEMBL3217687, “Identification of multifunctional small molecule-based reversible monoamine oxidase inhibitors” (Medchemcomm, 2011).

Molecules are shown by their SMILES.

As to `CN(C)c1ccc(/N=C/c2ccccn2)cc1`, the Ratio Ki in the test listed under Homo sapiens was 2.8. Also, the Ki – broadly, the equilibrium dissociation constant of an inhibitor or competing ligand from its target – in test [1] was 0.04 µM; in test [3], 0.1 µM. Besides, the concentration for half-maximal inhibition (IC50) – broadly, the concentration at which inhibition is half-maximal – in test [2] amounted to 0.36 µM; in test [4], 0.068 µM.
Consider `c1ccc(NCc2ccccn2)cc1`, for which the Ratio Ki in the test filed under Homo sapiens worked out at 0.06. The Ki came to 97 µM in test [1] and 5.7 µM in test [3]. Further, the IC50 came out at 20 µM in test [2] and 182 µM in test [4].
